# “Also recorded” adds a separate entry of the source. Read-outs that look alike come from different tables or passages of the source.
# Experiments:
# VPAC2-R [1] = target: T1, VPAC2-R (Homo sapiens, UniProt P41587); test: Binding of 125I-PACAP27 to VPAC2-R/PANC-1 cells; conditions: ratio of binding IC50, analog vs native parent peptide
# T1 sequence (P41587 24-438): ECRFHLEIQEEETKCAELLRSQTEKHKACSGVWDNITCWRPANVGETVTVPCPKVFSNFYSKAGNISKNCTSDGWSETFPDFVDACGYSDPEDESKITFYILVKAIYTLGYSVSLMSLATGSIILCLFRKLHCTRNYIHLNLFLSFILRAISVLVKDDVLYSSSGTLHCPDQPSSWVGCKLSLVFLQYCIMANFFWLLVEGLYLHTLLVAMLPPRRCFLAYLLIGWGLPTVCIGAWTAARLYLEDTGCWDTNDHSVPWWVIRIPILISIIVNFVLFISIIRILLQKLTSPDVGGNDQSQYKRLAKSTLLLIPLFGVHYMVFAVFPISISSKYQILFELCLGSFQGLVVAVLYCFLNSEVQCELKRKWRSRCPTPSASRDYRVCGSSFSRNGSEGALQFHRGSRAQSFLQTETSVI
# VPAC1-R [2] = target: T2, VPAC1-R (Homo sapiens, UniProt P32241); test: Binding of 125I-VIP to VPAC1-R/PANC-1 cells; conditions: ratio of binding IC50, analog vs native parent peptide
# T2 sequence (P32241 31-457): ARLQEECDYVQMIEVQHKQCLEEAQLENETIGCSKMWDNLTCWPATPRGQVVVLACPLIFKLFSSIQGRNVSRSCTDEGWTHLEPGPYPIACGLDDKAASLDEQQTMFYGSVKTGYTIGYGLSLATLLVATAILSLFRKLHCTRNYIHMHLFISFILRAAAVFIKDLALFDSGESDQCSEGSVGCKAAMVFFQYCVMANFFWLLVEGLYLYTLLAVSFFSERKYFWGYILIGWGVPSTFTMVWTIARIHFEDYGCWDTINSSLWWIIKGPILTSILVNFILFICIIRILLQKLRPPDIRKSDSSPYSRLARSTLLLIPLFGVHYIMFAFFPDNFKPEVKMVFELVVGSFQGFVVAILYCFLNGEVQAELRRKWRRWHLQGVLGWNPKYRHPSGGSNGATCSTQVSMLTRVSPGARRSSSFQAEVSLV
# VPAC1-R [3] = target: T2, VPAC1-R; test: [3H]cAMP generation in T47D cells; format: cell-based; conditions: for [3H]cAMP T47D % max (agonist class): relative to PACAP38, up to 1 µM
# VPAC1-R [4] = target: T2, VPAC1-R; test: [3H]cAMP generation in VPAC1-R/PANC-1 cells; format: cell-based; conditions: for [3H]cAMP VPAC1-R/PANC-1 % max (agonist class): VPAC1-R/PANC-1 cells, relative to PACAP38, up to 1 µM
# VPAC2-R [5] = target: T1, VPAC2-R; test: [3H]cAMP generation in VPAC2-R/PANC-1 cells; format: cell-based; conditions: for [3H]cAMP VPAC2-R/PANC-1 % max (agonist class): VPAC2-R/PANC-1 cells, relative to PACAP38, up to 1 µM
# PAC1-R [6] = target: T3, PAC1-R (Homo sapiens, UniProt P41586); test: Binding of 125I-PACAP27 to PAC1-R stably transfected NIH 3T3 cells
# T3 sequence (P41586 21-468): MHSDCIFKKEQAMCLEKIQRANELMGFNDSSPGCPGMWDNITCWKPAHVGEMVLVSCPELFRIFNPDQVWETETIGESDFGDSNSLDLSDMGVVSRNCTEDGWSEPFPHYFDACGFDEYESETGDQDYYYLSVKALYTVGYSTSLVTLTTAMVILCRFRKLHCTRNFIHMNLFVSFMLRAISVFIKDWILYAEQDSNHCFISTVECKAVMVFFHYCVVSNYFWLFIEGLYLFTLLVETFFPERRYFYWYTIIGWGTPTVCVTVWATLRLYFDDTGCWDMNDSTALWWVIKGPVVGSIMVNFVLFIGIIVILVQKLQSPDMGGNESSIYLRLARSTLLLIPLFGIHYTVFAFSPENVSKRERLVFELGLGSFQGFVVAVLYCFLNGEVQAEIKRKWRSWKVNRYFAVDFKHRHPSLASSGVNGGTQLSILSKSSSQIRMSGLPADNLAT
# PAC1-R [7] = target: T3, PAC1-R; test: [3H]cAMP generation in PAC1-R cells; format: cell-based
substance,measurement,setting,value
"[Aib^16,28,Ala^17,Lys^34,D-Lys^38]PACAP38 [Peptide P34]","decrease in affinity for VPAC2-R/PANC-1 cells compared to native PACAP38 (or PACAP27, VIP)",VPAC2-R [1],2-to-6 fold
[Me-Lys^15]PACAP27 [Peptide P2],"decrease in affinity for VPAC2-R/PANC-1 cells compared to native PACAP38 (or PACAP27, VIP)",VPAC2-R [1],6–132 fold
same,"decrease in affinity for VPAC1-R/PANC-1 cells compared to native PACAP38 (or PACAP27, VIP)",VPAC1-R [2],100–500 fold
same,[3H]cAMP T47D % max (agonist class),VPAC1-R [3],No Act
same,[3H]cAMP VPAC1-R/PANC-1 % max (agonist class),VPAC1-R [4],"Ag (1 µM, 68)"
same,[3H]cAMP VPAC2-R/PANC-1 % max (agonist class),VPAC2-R [5],"Ag (1 µM, 19)"
"[β-Ala^3,Ala^16,17]PACAP38 [Peptide P21]","decrease in affinity for VPAC2-R/PANC-1 cells compared to native PACAP38 (or PACAP27, VIP)",VPAC2-R [1],50–400 fold
same,[3H]cAMP VPAC2-R/PANC-1 % max (agonist class),VPAC2-R [5],no agonist activity; also recorded: No Act
[Sar^3]PACAP27 [Peptide P6],"decrease in affinity for VPAC2-R/PANC-1 cells compared to native PACAP38 (or PACAP27, VIP)",VPAC2-R [1],6–132 fold
same,"decrease in affinity for VPAC1-R/PANC-1 cells compared to native PACAP38 (or PACAP27, VIP)",VPAC1-R [2],100–500 fold
same,"[3H]cAMP T47D % max, agonist activity at 1 µM, still increasing",VPAC1-R [3]; at 1 µM,"Ag (1 µM, 69) % max"
same,[3H]cAMP T47D % max (agonist class),VPAC1-R [3],"Ag (1 µM, 69)"
same,[3H]cAMP VPAC2-R/PANC-1 % max (agonist class),VPAC2-R [5],no agonist activity; also recorded: No Act
[Sar^4]PACAP27 [Peptide P22],"decrease in affinity for VPAC2-R/PANC-1 cells compared to native PACAP38 (or PACAP27, VIP)",VPAC2-R [1],6–132 fold
same,"decrease in affinity for VPAC1-R/PANC-1 cells compared to native PACAP38 (or PACAP27, VIP)",VPAC1-R [2],100–500 fold
same,[3H]cAMP T47D % max (agonist class),VPAC1-R [3],No Act
same,[3H]cAMP VPAC1-R/PANC-1 % max (agonist class),VPAC1-R [4],no agonist activity; also recorded: No Act
same,[3H]cAMP VPAC2-R/PANC-1 % max (agonist class),VPAC2-R [5],no agonist activity; also recorded: No Act
"[Iaa^1,D-Tyr^2,Ala^22]PACAP38 [Peptide P49]","decrease in affinity for VPAC2-R/PANC-1 cells compared to native PACAP38 (or PACAP27, VIP)",VPAC2-R [1],50–400 fold
"[Pip^3,Ala^15,17,Aib^16,28,Lys^34,D-Lys^38]PACAP38 [Peptide P38]",[3H]cAMP VPAC2-R/PANC-1 % max (agonist class),VPAC2-R [5],no agonist activity; also recorded: No Act
"[D-Ser^2,Lys(Palmitoyl)^38]PACAP38 [Peptide P13]","decrease in affinity for VPAC2-R/PANC-1 cells compared to native PACAP38 (or PACAP27, VIP)",VPAC2-R [1],16–21 fold
"[Me-Asp^3,Aib^16,28,Lys^34,D-Lys^38]PACAP38 [Peptide P33]","decrease in affinity for VPAC2-R/PANC-1 cells compared to native PACAP38 (or PACAP27, VIP)",VPAC2-R [1],40–85 fold
[Aib^2]PACAP38 [Peptide P15],decrease in affinity for PAC1-R cells compared to native PACAP38 (or PACAP27),PAC1-R [6],11–30 fold
same,lower affinity for PAC1-R cells than VPAC2-R/PANC-1 cells,PAC1-R [6],2–9 fold
"[Pip^3,Aib^16,28,Ala^17,21,Lys^34,D-Lys^38]PACAP38 [Peptide P40]",[3H]cAMP VPAC2-R/PANC-1 % max (agonist class),VPAC2-R [5],no agonist activity; also recorded: No Act
"[Pip^3,Ala^14,17,Aib^16,28,Lys^34,D-Lys^38]PACAP38 [Peptide P39]",[3H]cAMP VPAC2-R/PANC-1 % max (agonist class),VPAC2-R [5],no agonist activity; also recorded: No Act
"[Aib^16,Ala^17,Lys^34]PACAP38 [Peptide P30]","decrease in affinity for VPAC2-R/PANC-1 cells compared to native PACAP38 (or PACAP27, VIP)",VPAC2-R [1],2-to-6 fold
"vasoactive intestinal peptide [VIP, reference compound]",lower affinity for PAC1-R cells than VPAC1-R/PANC-1 cells,"PAC1-R [6]; binding IC50 ratio, VPAC1-R preferring","> 1,000 fold"
same,lower affinity for PAC1-R cells than VPAC2-R/PANC-1 cells,"PAC1-R [6]; binding IC50 ratio, VPAC2-R preferring",> 400 fold
same,[3H]cAMP PAC1-R % max (agonist class),PAC1-R [7],No Act
same,less potent than PACAP38 and PACAP27 at stimulating PAC1-R cells,PAC1-R [7]; cAMP generation,> 800 fold
same,"maximal increase in cAMP, PAC1-R cells",PAC1-R [7]; over control,4.1 ± 1.5 fold
same,"maximal increase in cAMP, VPAC1-R/PANC-1 cells",VPAC1-R [4],5.0 ± 0.7 fold
same,"maximal increase in cAMP, VPAC2-R/PANC-1 cells",VPAC2-R [5],6.5 ± 2.0 fold
[Lys(palmitoyl)^38]PACAP38 [Peptide P12],"decrease in affinity for VPAC2-R/PANC-1 cells compared to native PACAP38 (or PACAP27, VIP)",VPAC2-R [1],16–21 fold
